This is an account of results in ChEMBL document CHEMBL5321229, “Conformationally locked sugar derivatives and analogues as potential neuraminidase inhibitors” (Eur J Med Chem, 2023).

One test concerns the target Neuraminidase (Influenza A virus, UniProt B4URF0). As to the kind of experiment: Inhibition of influenza A virus neuraminidase.
Test [1] concerns Influenza A virus. As to the kind of experiment: Antiviral activity against Influenza A virus. The format is functional, organism-based.
Another test deals with Influenza B virus. As to the kind of experiment: Antiviral activity against Influenza B virus. The test is classed as functional, organism-based.
Test [2] has as its target Neuraminidase (Influenza A virus (A/Puerto Rico/8/1934(H1N1)), UniProt P03468). As to the kind of experiment: Binding affinity to influenza A virus H1N1 (A/Norway/1758/07) neuraminidase using MUNANA as substrate assessed as inhibition constant.
Test [3] in a line: Inhibition of Influenza A virus H7N9 VLP neuraminidase using MUNANA as substrate.
The nature of test [4]: Inhibition of Newcastle disease virus neuraminidase using 4-MUNeu5Ac as substrate assessed as reduction in neuraminidase activity incubated for 15 mins by spectrofluorometric analysis.
For test [5], the system named is Influenza A virus. As to the kind of experiment: Antiviral activity against influenza A virus A/Hong Kong/1/68 (HK1, H3N2) infected in dog MDCK cells assessed as cytopathic effect. The format is functional, organism-based.
The nature of test [6]: Inhibition of influenza A virus A/Anhui/1/2005 H5N1 using MUNANA as substrate preincubated for 45 mins followed by substrate addition by fluorescence based assay.
Test [7] is described as follows: Inhibition of influenza A virus H12N5 A/Duck/Alberta/60/1976 neuraminidase using MUNANA as substrate incubated for 30 mins followed by substrate addition by fluorescence based assay.
The target of test [8] is Neuraminidase (Influenza A virus (A/Memphis/1/1971(H3N2)), UniProt P03471). As to the kind of experiment: Inhibition of influenza A virus H3N2 (A/Moscow/10/99) neuraminidase using MUNANA as substrate preincubated for 30 mins followed by substrate addition by fluorescence-based assay.
The nature of test [9]: Inhibition of influenza A virus H5N1 (A/Anhui/2005) neuraminidase using fluorogenic MUNANA as substrate.
The nature of test [10]: Binding affinity to influenza A virus A/HongKong/156/97 (H5N1) neuraminidase using fluorogenic MUN as substrate assessed as inhibition constant.
The test system of test [11] is Influenza A virus. As to the kind of experiment: Antiviral activity against oseltamivir sensitive wild type Influenza A virus A/Brisbane/59/2007 infected infected in dog MDCK cells assessed as inhibition of viral growth incubated for 4 days by neutral red dye-based assay. The settings on record: A/Brisbane/59/2007, MDCK, 96 h, time 4 day, read-out: ED50 (the source's name). The format is functional.

Test [12] can be described thus: Inhibition of influenza A virus A/Singapore/157 neuraminidase using 2'-(4-methylumbelliferyl)-alpha-D-acetylneuraminic acid as substrate incubated for 10 to 30 mins by fluorescence-based assay.
A short description of test [13]: Inhibition of influenza B virus B/Victoria/70 neuraminidase using 2'-(4-methylumbelliferyl)-alpha-D-acetylneuraminic acid as substrate incubated for 10 to 30 mins by fluorescence-based assay.
The nature of test [14]: Inhibition of hPIV-3 Haemagglutinin-neuraminidase infected in human red blood cells incubated for 90 mins by haemagglutination assay. The test is classed as cell-based, RBC. Conditions: Human respirovirus 3, Erythrocyte, 1.5 h.

Broadly, the IC50 is the concentration at which inhibition is half-maximal. A word on the Ki: it is the dissociation constant of the complex between target and ligand, obtained from inhibition or displacement.

Chain of Neuraminidase (B4URF0 whole entry): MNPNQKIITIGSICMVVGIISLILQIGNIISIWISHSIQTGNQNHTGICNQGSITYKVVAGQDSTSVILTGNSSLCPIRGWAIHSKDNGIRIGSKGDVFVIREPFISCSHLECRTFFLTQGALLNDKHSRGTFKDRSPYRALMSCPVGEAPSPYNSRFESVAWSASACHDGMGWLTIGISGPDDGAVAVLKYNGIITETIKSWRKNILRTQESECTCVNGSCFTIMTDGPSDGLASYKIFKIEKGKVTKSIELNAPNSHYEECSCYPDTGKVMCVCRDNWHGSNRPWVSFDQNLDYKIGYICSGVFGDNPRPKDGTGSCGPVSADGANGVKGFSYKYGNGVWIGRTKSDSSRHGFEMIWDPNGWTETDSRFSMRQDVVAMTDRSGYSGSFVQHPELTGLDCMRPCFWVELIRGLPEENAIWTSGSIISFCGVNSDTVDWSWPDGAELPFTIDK
Chain of Neuraminidase (Influenza A virus (A/Puerto Rico/8/1934(H1N1)), UniProt P03468) (P03468 whole entry): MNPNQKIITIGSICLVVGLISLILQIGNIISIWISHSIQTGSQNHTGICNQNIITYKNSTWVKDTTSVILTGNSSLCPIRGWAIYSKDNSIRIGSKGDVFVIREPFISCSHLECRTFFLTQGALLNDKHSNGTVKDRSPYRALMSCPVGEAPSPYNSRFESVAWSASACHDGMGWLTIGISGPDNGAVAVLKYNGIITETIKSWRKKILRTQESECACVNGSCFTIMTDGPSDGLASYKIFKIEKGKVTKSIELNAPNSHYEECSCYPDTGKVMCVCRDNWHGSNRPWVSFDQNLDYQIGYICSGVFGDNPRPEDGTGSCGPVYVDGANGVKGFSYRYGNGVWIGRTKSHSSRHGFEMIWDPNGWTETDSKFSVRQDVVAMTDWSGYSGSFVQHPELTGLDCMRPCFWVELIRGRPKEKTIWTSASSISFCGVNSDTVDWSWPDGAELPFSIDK
Chain of Neuraminidase (Influenza A virus (A/Memphis/1/1971(H3N2)), UniProt P03471) (P03471 whole entry): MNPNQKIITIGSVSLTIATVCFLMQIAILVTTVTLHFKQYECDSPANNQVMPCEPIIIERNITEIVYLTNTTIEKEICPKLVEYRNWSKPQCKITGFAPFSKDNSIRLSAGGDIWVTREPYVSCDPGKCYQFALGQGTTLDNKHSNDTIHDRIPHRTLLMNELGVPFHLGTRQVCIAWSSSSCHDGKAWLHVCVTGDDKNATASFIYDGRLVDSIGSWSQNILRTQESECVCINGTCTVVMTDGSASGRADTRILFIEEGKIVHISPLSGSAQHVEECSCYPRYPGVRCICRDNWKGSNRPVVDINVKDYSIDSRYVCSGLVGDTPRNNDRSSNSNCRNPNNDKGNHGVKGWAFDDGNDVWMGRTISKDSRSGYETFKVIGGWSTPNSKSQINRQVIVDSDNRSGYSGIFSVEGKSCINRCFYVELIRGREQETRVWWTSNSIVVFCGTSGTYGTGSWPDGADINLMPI

`CO[C@@H]([C@@H]1OC(C(=O)O)=C[C@H](NC(=N)N)[C@H]1NC(C)=O)[C@H](O)CO` had an IC50 on Neuraminidase of 0.0176 µM. For the molecule `CCOC(=O)NC(=N)N[C@H]1C=C(C(=O)O)O[C@@H]([C@H](O)[C@H](O)CO)[C@@H]1NC(C)=O`, the half-inhibitory concentration (IC50) in the test on Influenza A virus [1] and in the test on Influenza B virus was 4.59 µM each time. On to `CCC(CC)O[C@@H]1C=C(P(=O)(O)O[C@H]2[C@@H](O)[C@@H](CO)O[C@@H](OC)[C@@H]2O)C[C@H](N)[C@H]1NC(C)=O`, for which, in test [2], the Ki was 0.00029 µM.

Take `CC(=O)N[C@H]1[C@H]([C@H](O)[C@H](O)CO)OC(C(=O)O)=C[C@@H]1NC(=N)NO`: the IC50 with Influenza A virus [1] and in the test on Influenza B virus was 4.59 µM throughout.

Take `N=C(N)N[C@@H]1[C@@H](NC(=O)C(F)(F)F)[C@H]([C@H](OC(=O)NCCn2cc(COC[C@H]3O[C@@H](O[C@H]4[C@H](OCc5cn(CCNC(=O)O[C@@H]([C@@H]6O[C@@](F)(C(=O)O)[C@H](F)[C@H](NC(=N)N)[C@H]6NC(=O)C(F)(F)F)[C@H](O)CO)nn5)[C@@H](OCc5cnnn5CCNC(=O)O[C@@H]([C@@H]5O[C@@](F)(C(=O)O)[C@H](F)[C@H](NC(=N)N)[C@H]5NC(=O)C(F)(F)F)[C@H](O)CO)[C@H](OCc5cn(CCNC(=O)O[C@@H]([C@@H]6O[C@@](F)(C(=O)O)[C@H](F)[C@H](NC(=N)N)[C@H]6NC(=O)C(F)(F)F)[C@H](O)CO)nn5)O[C@@H]4COCc4cn(CCNC(=O)O[C@@H]([C@@H]5O[C@@](F)(C(=O)O)[C@H](F)[C@H](NC(=N)N)[C@H]5NC(=O)C(F)(F)F)[C@H](O)CO)nn4)[C@H](OCc4cn(CCNC(=O)O[C@@H]([C@@H]5O[C@@](F)(C(=O)O)[C@H](F)[C@H](NC(=N)N)[C@H]5NC(=O)C(F)(F)F)[C@H](O)CO)nn4)[C@@H](OCc4cn(CCNC(=O)O[C@@H]([C@@H]5O[C@@](F)(C(=O)O)[C@H](F)[C@H](NC(=N)N)[C@H]5NC(=O)C(F)(F)F)[C@H](O)CO)nn4)[C@H]3OCc3cn(CCNC(=O)O[C@@H]([C@@H]4O[C@@](F)(C(=O)O)[C@H](F)[C@H](NC(=N)N)[C@H]4NC(=O)C(F)(F)F)[C@H](O)CO)nn3)nn2)[C@H](O)CO)O[C@@](F)(C(=O)O)[C@@H]1F`: 0.0306 µM corresponded to half-maximal inhibition in test [3] (IC50).

As to `[N-]=[N+]=N[C@H]1C=C(C(=O)O)O[C@@H]([C@@H](O)[C@H](O)CO)[C@H]1NC(=O)C(F)(F)C(F)(F)C(F)(F)F`, the IC50 in [4] is 0.03 µM. For `CCC(CC)O[C@@H]1C=C(C(=O)O)[C@@H](n2cc(C(O)CC)nn2)[C@H](N)[C@H]1NC(C)=O` (stereo partly specified), the IC50 in the test on Influenza A virus [5] amounted to 0.1 µM.

For `O=C(O)C1=C[C@H](NC(=O)C(F)(F)F)[C@H](NC(=O)C(F)(F)F)[C@H]([C@@H](O)[C@H](O)CO)O1`, the IC50 in [4] was determined as 0.03 µM. For `CCC(CC)O[C@@H]1C2C([C@@H]2C(=O)O)[C@@H](NCc2ccccc2)[C@H]1NC(C)=O` (stereo partly specified), the IC50 in test [6] stood at 10 µM. As for `CCC(CC)O[C@@H]1C=C(C(=O)O)C[C@H](n2nncc2-c2cccc(N)c2)[C@H]1NC(C)=O`, the IC50 turned out to be 0.045 µM in test [7] and 0.019 µM in test [8]. `CCC(CC)O[C@@H]1C=C(C(=O)O)C[C@H](NS(C)(=O)=O)[C@H]1NC(C)=O`: inhibition in test [9] was half-maximal at 3.5 µM (IC50). As for `CC(=O)N[C@H]1[C@H]([C@H](O)[C@H](O)CO)OC(C(=O)O)=C(C/C=C/c2cccc3ccccc23)[C@@H]1O`, the Ki in [10] stood at 9.3 µM. `CCCCCCCCO[C@@H]([C@@H]1OC(C(=O)O)=C[C@H](N=C(N)N)[C@H]1NC(C)=O)[C@H](O)CO` returned an IC50 against Neuraminidase of 0.0455 µM.

As for `CCC(CC)O[C@@H]1C=C(P(=O)(O)OC[C@H]2O[C@@H](OC)[C@H](O)[C@@H](O)[C@H]2O)C[C@H](N)[C@H]1NC(C)=O`, in [2], the Ki was 0.00074 µM. With `CCC(CC)O[C@@H]1CC(C(=O)O)=C[C@H](NC(=N)N)[C@H]1NC(C)=O`, in the test on Influenza A virus [11], the EC50 was found to be 3.9 µM. On to `CC(=O)N[C@H]1[C@H]([C@H](O)[C@H](O)CO)OC(C(=O)O)=C[C@@H]1NC(=N)NN`, for which the IC50 with Influenza A virus [1] and in the test on Influenza B virus was 4.59 µM in each case. Consider `CCCCCO[C@@H]([C@@H]1OC(C(=O)O)=C[C@H](N=C(N)N)[C@H]1NC(C)=O)[C@H](O)CO`, for which, on Neuraminidase, the IC50 is 0.0356 µM.

`CCC(CC)O[C@@H]1C2C([C@@H]2C(=O)O)[C@@H](O)[C@H]1NC(C)=O` (stereo partly specified) gave an IC50 in test [6] of 10 µM. Same read-out and setting: to `CCC(CC)O[C@@H]1C2C([C@@H]2C(=O)O)[C@@H](NCc2ccc(-c3ccccc3)cc2)[C@H]1NC(C)=O` (stereo partly specified) belongs 10 µM.

For `CCC(CC)[C@H](NC(C)=O)[C@@H]1C[C@@H](C(=O)O)C[C@H]1N=C(N)N`, the IC50 in test [12] and in [13] was < 0.01 µM each time. Turning to `[N-]=[N+]=N[C@H]1C=C(C(=O)O)O[C@@H]([C@@H](O)[C@H](O)CO)[C@H]1NC(=O)C(F)(F)F`, the IC50 in [4] was 0.03 µM. Consider `CCO[C@@H]([C@@H]1OC(C(=O)O)=C[C@H](N=C(N)N)[C@H]1NC(C)=O)[C@H](O)CO`, for which, at Neuraminidase, half-maximal inhibition (IC50) was put at 0.0733 µM. Regarding `Cc1ccc(C(=O)N[C@H]2C=C(C(=O)O)O[C@@H]([C@@H](O)[C@H](O)CO)[C@H]2NC(=O)C(F)(F)F)cc1`, the IC50 in test [4] stood at 0.03 µM.

As for `CNC(=N)N[C@H]1C=C(C(=O)O)O[C@@H]([C@H](O)[C@H](O)CO)[C@@H]1NC(C)=O`, the concentration for half-maximal inhibition (IC50) in the test on Influenza A virus [1] and in the test on Influenza B virus was 4.59 µM in each case. The molecule `CC(C)C(=O)N[C@H]1[C@H]([C@H](O)[C@H](O)CO)OC(C(=O)O)=C(n2cc(-c3ccccc3C(=O)O)nn2)[C@@H]1O` gave a concentration for half-maximal inhibition (IC50) in test [14] of 3.9 µM. Regarding `CCCCCCCCCCCCO[C@@H]([C@@H]1OC(C(=O)O)=C[C@H](N=C(N)N)[C@H]1NC(C)=O)[C@H](O)CO`, on Neuraminidase, the IC50 was 0.0992 µM. Regarding `CC(=O)N[C@H]1[C@H]([C@H](O)[C@H](O)CO)OC(C(=O)O)=C[C@@H]1NC(=N)N[N+](=O)[O-]`, the IC50 with Influenza A virus [1] and with Influenza B virus was 4.59 µM in each case.

As for `CCCO[C@@H]([C@@H]1OC(C(=O)O)=C[C@H](N=C(N)N)[C@H]1NC(C)=O)[C@H](O)CO`, on Neuraminidase, inhibition was half-maximal at 0.0818 µM (IC50). As to `CCC(CC)O[C@@H]1CC(C(=O)O)=C[C@H](N)[C@H]1NC(C)=O`, in the test on Influenza A virus [11], the EC50 was 12 µM.
